{"source": "PubChem BioAssay (NCI)", "test_in_all_cases": "NCI tumour cell line growth inhibition, 48 h", "key": {"[1]": {"system": "786-0 renal"}, "[2]": {"system": "A498 renal"}, "[3]": {"system": "A549 NSCLC"}, "[4]": {"system": "ACHN renal"}, "[5]": {"system": "BT-549 breast"}, "[6]": {"system": "CAKI-1 renal"}, "[7]": {"system": "CCRF-CEM leukemia"}, "[8]": {"system": "COLO 205 colon"}, "[9]": {"system": "DU-145 prostate"}, "[10]": {"system": "EKVX NSCLC"}, "[11]": {"system": "HCC-2998 colon"}, "[12]": {"system": "HCT-116 colon"}, "[13]": {"system": "HCT-15 colon"}, "[14]": {"system": "HL-60(TB) leukemia"}, "[15]": {"system": "HOP-62 NSCLC"}, "[16]": {"system": "HOP-92 NSCLC"}, "[17]": {"system": "HS 578T breast"}, "[18]": {"system": "HT29 colon"}, "[19]": {"system": "IGROV1 ovarian"}, "[20]": {"system": "K-562 leukemia"}, "[21]": {"system": "KM12 colon"}, "[22]": {"system": "LOX IMVI melanoma"}, "[23]": {"system": "M14 melanoma"}, "[24]": {"system": "MALME-3M melanoma"}, "[25]": {"system": "MCF7 breast"}, "[26]": {"system": "MDA-MB-231 breast"}, "[27]": {"system": "MDA-MB-435"}, "[28]": {"system": "MDA-N"}, "[29]": {"system": "MOLT-4 leukemia"}, "[30]": {"system": "NCI-H226 lung"}, "[31]": {"system": "NCI-H23 lung"}, "[32]": {"system": "NCI-H460 lung"}, "[33]": {"system": "NCI-H522 lung"}, "[34]": {"system": "NCI/ADR-RES ovarian"}, "[35]": {"system": "OVCAR-3 ovarian"}, "[36]": {"system": "OVCAR-5 ovarian"}, "[37]": {"system": "OVCAR-8 ovarian"}, "[38]": {"system": "PC-3 prostate"}, "[39]": {"system": "RPMI-8226 leukemia"}, "[40]": {"system": "RXF 393 renal"}, "[41]": {"system": "SF-268 CNS"}, "[42]": {"system": "SF-295 CNS"}, "[43]": {"system": "SF-539 CNS"}, "[44]": {"system": "SK-MEL-2 melanoma"}, "[45]": {"system": "SK-MEL-28 melanoma"}, "[46]": {"system": "SK-MEL-5 melanoma"}, "[47]": {"system": "SK-OV-3 ovarian"}, "[48]": {"system": "SN12C renal"}, "[49]": {"system": "SNB-19 CNS"}, "[50]": {"system": "SNB-75 CNS"}, "[51]": {"system": "SR leukemia"}, "[52]": {"system": "SW-620 colon"}, "[53]": {"system": "T-47D breast"}, "[54]": {"system": "TK-10 renal"}, "[55]": {"system": "U251 CNS"}, "[56]": {"system": "UACC-257 melanoma"}, "[57]": {"system": "UACC-62 melanoma"}, "[58]": {"system": "UO-31 renal"}}, "note": "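The compound was tested at five concentrations on cells cultured in 96-well plates, with a 48-hour exposure period. At the TGI there is no net growth.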"}
{"smiles": "O=C(NC(Nc1ccc(F)c(Cl)c1)(C(F)(F)F)C(F)(F)F)OCc1ccccc1", "values": [{"measurement": "TGI", "setting": "[1]", "value": 39.5, "unit": "µM"}, {"measurement": "TGI", "setting": "[2]", "value": "> 100", "unit": "µM"}, {"measurement": "TGI", "setting": "[3]", "value": "> 100", "unit": "µM"}, {"measurement": "TGI", "setting": "[4]", "value": "> 100", "unit": "µM"}, {"measurement": "TGI", "setting": "[5]", "value": 33.6, "unit": "µM"}, {"measurement": "TGI", "setting": "[6]", "value": "> 100", "unit": "µM"}, {"measurement": "TGI", "setting": "[7]", "value": "> 100", "unit": "µM"}, {"measurement": "TGI", "setting": "[8]", "value": 35.1, "unit": "µM"}, {"measurement": "TGI", "setting": "[9]", "value": "> 100", "unit": "µM"}, {"measurement": "TGI", "setting": "[10]", "value": 83.6, "unit": "µM"}, {"measurement": "TGI", "setting": "[11]", "value": 64.8, "unit": "µM"}, {"measurement": "TGI", "setting": "[12]", "value": "> 100", "unit": "µM"}, {"measurement": "TGI", "setting": "[13]", "value": 94.5, "unit": "µM"}, {"measurement": "TGI", "setting": "[14]", "value": 40.3, "unit": "µM"}, {"measurement": "TGI", "setting": "[15]", "value": "> 100", "unit": "µM"}, {"measurement": "TGI", "setting": "[16]", "value": 95, "unit": "µM"}, {"measurement": "TGI", "setting": "[17]", "value": "> 100", "unit": "µM"}, {"measurement": "TGI", "setting": "[18]", "value": "> 100", "unit": "µM"}, {"measurement": "TGI", "setting": "[19]", "value": "> 100", "unit": "µM"}, {"measurement": "TGI", "setting": "[20]", "value": "> 100", "unit": "µM"}, {"measurement": "TGI", "setting": "[21]", "value": "> 100", "unit": "µM"}, {"measurement": "TGI", "setting": "[22]", "value": "> 100", "unit": "µM"}, {"measurement": "TGI", "setting": "[23]", "value": "> 100", "unit": "µM"}, {"measurement": "TGI", "setting": "[24]", "value": "> 100", "unit": "µM"}, {"measurement": "TGI", "setting": "[25]", "value": 38.1, "unit": "µM"}, {"measurement": "TGI", "setting": "[26]", "value": 33.5, "unit": "µM"}, {"measurement": "TGI", "setting": "[27]", "value": "> 100", "unit": "µM"}, {"measurement": "TGI", "setting": "[28]", "value": 56.2, "unit": "µM"}, {"measurement": "TGI", "setting": "[29]", "value": 89.1, "unit": "µM"}, {"measurement": "TGI", "setting": "[30]", "value": "> 100", "unit": "µM"}, {"measurement": "TGI", "setting": "[31]", "value": "> 100", "unit": "µM"}, {"measurement": "TGI", "setting": "[32]", "value": "> 100", "unit": "µM"}, {"measurement": "TGI", "setting": "[33]", "value": 42.1, "unit": "µM"}, {"measurement": "TGI", "setting": "[34]", "value": "> 100", "unit": "µM"}, {"measurement": "TGI", "setting": "[35]", "value": 34.8, "unit": "µM"}, {"measurement": "TGI", "setting": "[36]", "value": "> 100", "unit": "µM"}, {"measurement": "TGI", "setting": "[37]", "value": "> 100", "unit": "µM"}, {"measurement": "TGI", "setting": "[38]", "value": "> 100", "unit": "µM"}, {"measurement": "TGI", "setting": "[39]", "value": 61.4, "unit": "µM"}, {"measurement": "TGI", "setting": "[40]", "value": "> 100", "unit": "µM"}, {"measurement": "TGI", "setting": "[41]", "value": "> 100", "unit": "µM"}, {"measurement": "TGI", "setting": "[42]", "value": 91.7, "unit": "µM"}, {"measurement": "TGI", "setting": "[43]", "value": 42.6, "unit": "µM"}, {"measurement": "TGI", "setting": "[44]", "value": "> 100", "unit": "µM"}, {"measurement": "TGI", "setting": "[45]", "value": "> 100", "unit": "µM"}, {"measurement": "TGI", "setting": "[46]", "value": "> 100", "unit": "µM"}, {"measurement": "TGI", "setting": "[47]", "value": 74.1, "unit": "µM"}, {"measurement": "TGI", "setting": "[48]", "value": "> 100", "unit": "µM"}, {"measurement": "TGI", "setting": "[49]", "value": 51, "unit": "µM"}, {"measurement": "TGI", "setting": "[50]", "value": "> 100", "unit": "µM"}, {"measurement": "TGI", "setting": "[51]", "value": 32.7, "unit": "µM"}, {"measurement": "TGI", "setting": "[52]", "value": "> 100", "unit": "µM"}, {"measurement": "TGI", "setting": "[53]", "value": "> 100", "unit": "µM"}, {"measurement": "TGI", "setting": "[54]", "value": "> 100", "unit": "µM"}, {"measurement": "TGI", "setting": "[55]", "value": "> 100", "unit": "µM"}, {"measurement": "TGI", "setting": "[56]", "value": "> 100", "unit": "µM"}, {"measurement": "TGI", "setting": "[57]", "value": "> 100", "unit": "µM"}, {"measurement": "TGI", "setting": "[58]", "value": 54.1, "unit": "µM"}]}
